Earlier results on two compounds are cited in patent US20020193323A1, “Compositions and methods for promoting a healthy cardiovascular system and enhancing blood flow” (priority 2000, published 2002).

For series [1], the system named is glutathione system. The following applies: selenium supplementation, through activation of the glutathione system.
The conditions of series [2]: in vivo.

In the case of `[Se]` [selenium], the “reduced lipid peroxidation levels” value in series [1] is 50%.
Regarding `CC1=C(/C=C/C(C)=C/C=C/C(C)=C/C=C/C=C(C)/C=C/C=C(C)/C=C/C2=C(C)CCCC2(C)C)C(C)(C)CCC1` [Beta-carotene], the “reduce risk of major coronary events” value in series [2] is 51%.
